The text below walks through data of patent publication US20050043315A1, “Aminopyrimidine compounds, processes for their preparation and pharmaceutical compositions containing them” (priority 2002, published 2005).

Molecules are shown by their SMILES. Where only a bound is given, the exact number is not on record here.

For `CNc1ncc(-c2ccc(=O)n(C(C)C)n2)c(-c2ccccc2)n1` [Example 10, 2-Isopropyl-6-[2-(methylamino)-4-phenyl-5-pyrimidinyl]-3(2H)-pyridazinone], the melting point lay in the range of 160 to 161 °C.

Compound `CC(C)n1nc(-c2c(OC3CCOCC3)nc(N)nc2-c2ccccc2)ccc1=O` [Example 97, 6-[2-Amino-4-phenyl-6-(tetrahydro-2H-pyran-4-yloxy)-5-pyrimidinyl]-2-isopropyl-3(2H)-pyridazinone] came in with a melting point of 207 to 209 °C.

`CC(C)n1nc(-c2cnc(N)nc2-c2c(Cl)cccc2Cl)ccc1=O` [Example 239, 6-[2-Amino-4-(2,6-dichlorophenyl)-5-pyrimidinyl]-2-isopropyl-3(2H)-pyridazinone] registered a melting point of 208 °C.

On to `CC(C)n1nc(-c2cnc(N)nc2-c2ccc(O)cc2)ccc1=O` (hydrate or solvate) [Example 185, 6-[2-amino-4-(4-hydroxyphenyl)-5-pyrimidinyl]-2-isopropyl-3(2H)-pyridazinone], for which the melting point came to 246 °C.

`CC(C)n1nc(-c2cnc(N)nc2-c2cccc(C(F)(F)F)c2)ccc1=O` [Example 25, 6-{2-Amino-4-[3-(trifluoromethyl)phenyl]-5-pyrimidinyl}-2-isopropyl-3(2H)-pyridazinone] registered a melting point of 163.5 to 165 °C.

Take `CC(C)n1nc(-c2cnc(N(C(=O)c3ccccc3)C(=O)c3ccccc3)nc2-c2ccccc2)ccc1=O` [Example 178, N-benzoyl-N-[5-(1-isopropyl-6-oxo-1,6-dihydro-3-pyridazinyl)-4-phenyl-2-pyrimidinyl]benzamide]: the melting point was 121 to 125 °C.

For the compound `CC(C)n1nc(-c2c(NCC(N)=O)nc(N)nc2-c2ccccc2)ccc1=O` [Example 118, 2-{(2-amino-5-(1-isopropyl-6-oxo-1,6-dihydro-3-pyridazinyl)-6-phenyl-4-pyrimidinyl]amino}acetamide], the melting point lay within 235 to 237.5 °C.

For the compound `CC(C)n1nc(-c2c(OCC(=O)O)nc(N)nc2-c2ccccc2)ccc1=O` [Example 100, {[2-amino-5-(1-isopropyl-6-oxo-1,6-dihydro-3-pyridazinyl)-6-phenyl-4-pyrimidinyl]oxy}acetic acid], the melting point lay within 215 to 217 °C.

On to `CNc1ncc(-c2ccc(=O)[nH]n2)c(-c2ccccc2)n1` [Example 8, 6-[2-(Methylamino)-4-phenyl-5-pyrimidinyl]-3(2H)-pyridazinone], for which the melting point is greater than 255 °C.

Regarding `Cn1nc(-c2cnc(N)nc2-c2ccco2)ccc1=O` [Example 64, 6-[2-Amino-4-(2-furyl)-5-pyrimidinyl]-2-methyl-3(2H)-pyridazinone], the melting point came out at 234 °C.

As for `CC(C)n1nc(-c2c(OCc3ccccn3)nc(N)nc2-c2ccccc2)ccc1=O` [Example 94, 6-[2-amino-4-phenyl-6-(2-pyridinylmethoxy)-5-pyrimidinyl]-2-isopropyl-3(2H)-pyridazinone], the melting point lay within 177 to 178 °C.

`CC(C)n1nc(-c2c(OCCF)nc(N)nc2-c2ccccc2)ccc1=O` [Example 92, 6-[2-Amino-4-(2-fluoroethoxy)-6-phenyl-5-pyrimidinyl]-2-isopropyl-3(2H)-pyridazinone] displayed a melting point of 129 to 130.5 °C.

Turning to `CC(C)n1nc(-c2c(Nc3ccccn3)nc(N)nc2-c2ccccc2)ccc1=O` [Example 135, 6-[2-Amino-4-phenyl-6-(2-pyridinylamino)-5-pyrimidinyl]-2-isopropyl-3(2H)-pyridazinone], the melting point was in the range of 163 to 164 °C.

Turning to `CC(C)n1nc(-c2cnc(N)nc2-c2ccc(F)c(F)c2)ccc1=O` [Example 49, 6-[2-Amino-4-(3,4-difluorophenyl)-5-pyrimidinyl]-2-isopropyl-3(2H)-pyridazinone], the melting point amounted to 208 °C.

Compound `CC(C)n1nc(-c2c(Oc3ccccc3)nc(N)nc2-c2ccccc2)ccc1=O` [Example 98, 6-(2-Amino-4-phenoxy-6-phenyl-5-pyrimidinyl)-2-isopropyl-3(2H)-pyridazinone] gave a melting point of 218 to 221 °C.

In turn, `CC(C)n1nc(-c2c(OCC(=O)c3ccccc3)nc(N)nc2-c2ccccc2)ccc1=O` [Example 161, 6-[2-Amino-4-(2-oxo-2-phenylethoxy)-6-phenyl-5-pyrimidinyl]-2-isopropyl-3(2H)-pyridazinone] had a melting point of 182 to 183 °C.

`CCNc1nc(N)nc(-c2ccccc2)c1-c1ccc(=O)n(C(C)C)n1` [Example 108, 6-[2-Amino-4-(ethylamino)-6-phenyl-5-pyrimidinyl]-2-isopropyl-3(2H)-pyridazinone] gave a melting point of 208 to 209 °C.

`CC(C)n1nc(-c2c(OC3CCCCC3)nc(N)nc2-c2ccccc2)ccc1=O` [Example 96, 6-[2-Amino-4-(cyclohexyloxy)-6-phenyl-5-pyrimidinyl]-2-isopropyl-3(2H)-pyridazinone] registered a melting point of 173 to 175 °C.

As for `CC(C)n1nc(-c2c(-c3ccccc3)nc(N)n(CC(=O)OC(C)(C)C)c2=O)ccc1=O` [Example 159, tert-butyl [2-amino-5-(1-isopropyl-6-oxo-1,6-dihydro-3-pyridazinyl)-6-oxo-4-phenyl-1(6H)-pyrimidinyl]acetate], the melting point lay within 138 to 141 °C.

Turning to `CC(C)n1nc(-c2cnc(N)nc2-c2ccc(Cl)c(Cl)c2)ccc1=O` [Example 50, 6-[2-Amino-4-(3,4-dichlorophenyl)-5-pyrimidinyl]-2-isopropyl-3(2H)-pyridazinone], the melting point worked out at 176 °C.

For `CC(C)n1nc(-c2c(NCCO)nc(N)nc2-c2ccccc2)ccc1=O` [Example 114, 6-{2-amino-4-[(2-hydroxyethyl)amino]-6-phenyl-5-pyrimidinyl}-2-isopropyl-3(2H)-pyridazinone], the melting point is 221.5 to 223.5 °C.

In turn, `CC(C)n1nc(-c2c(NCc3ccccn3)nc(N)nc2-c2ccc(F)cc2)ccc1=O` [Example 157, 6-{2-Amino-4-(4-fluorophenyl)-6-[(2-pyridinylmethyl)amino]-5-pyrimidinyl}-2-isopropyl-3(2H)-pyridazinone] yielded a melting point of 210 to 212 °C.

In turn, `CC(C)n1nc(-c2cnc(N(C(=O)c3ccc(C(F)(F)F)cc3)C(=O)c3ccc(C(F)(F)F)cc3)nc2-c2ccccc2)ccc1=O` [Example 183, N-[5-(1-isopropyl-6-oxo-1,6-dihydro-3-pyridazinyl)-4-phenyl-2-pyrimidinyl]-4-(trifluoromethyl)-N-[4-(trifluoromethyl)benzoyl]benzamide] had a melting point of 159 °C.

`CCCCCCOc1ccc(-c2nc(N)ncc2-c2ccc(=O)n(C(C)C)n2)cc1` [Example 206, 6-{2-Amino-4-[4-(hexyloxy)phenyl]-5-pyrimidinyl}-2-isopropyl-3(2H)-pyridazinone] displayed a melting point of 184 °C.

In turn, `CC(C)n1nc(-c2cnc(NC(=O)c3ccccc3)nc2-c2ccccc2)ccc1=O` [Example 169, N-[5-(1-isopropyl-6-oxo-1,6-dihydro-3-pyridazinyl)-4-phenyl-2-pyrimidinyl]benzamide] came in with a melting point of 116 to 120 °C.

With `CC(C)n1nc(-c2cnc(N)nc2-c2cccc(OCCCF)c2)ccc1=O` [Example 216, 6-{2-Amino-4-[3-(3-fluoropropoxy)phenyl]-5-pyrimidinyl}-2-isopropyl-3(2H)-pyridazinone], the melting point was 123 °C.

In turn, `Cn1nc(-c2cnc(N)nc2-c2ccoc2)ccc1=O` [Example 244, 6-[2-Amino-4-(3-furyl)-5-pyrimidinyl]-2-methyl-3(2H)-pyridazinone] yielded a melting point of 241 °C.

Turning to `CC(C)n1nc(-c2cnc(NC(=O)c3cccnc3)nc2-c2ccccc2)ccc1=O` [Example 175, N-[5-(1-isopropyl-6-oxo-1,6-dihydro-3-pyridazinyl)-4-phenyl-2-pyrimidinyl)nicotinamide], the melting point is 163 to 167 °C.

`CC(C)n1nc(-c2cnc(N)nc2-c2ccccc2Br)ccc1=O` [Example 15, 6-[2-Amino-4-(2-bromophenyl)-5-pyrimidinyl]-2-isopropyl-3(2H)-pyridazinone] gave a melting point of 203 to 205 °C.

`Cn1nc(-c2cnc(N)nc2-c2cccs2)ccc1=O` [Example 69, 6-[2-Amino-4-(2-thienyl)-5-pyrimidinyl]-2-methyl-3(2H)-pyridazinone] displayed a melting point of 270 °C.

On to `Cn1nc(-c2cnc(N)nc2-c2ccsc2)ccc1=O` [Example 245, 6-[2-Amino-4-(3-thienyl)-5-pyrimidinyl]-2-methyl-3(2H)-pyridazinone], for which the melting point came out at 252 °C.

For the compound `COc1ccc(-c2nc(N)ncc2-c2ccc(=O)n(C(C)C)n2)cc1` [Example 44, 6-[2-amino-4-(4-methoxyphenyl)-5-pyrimidinyl]-2-isopropyl-3(2H)-pyridazinone], the melting point was determined as 216.5 °C.

For the compound `CC(C)n1nc(-c2cnc(N)nc2-c2cc(F)cc(F)c2)ccc1=O` [Example 238, 6-[2-Amino-4-(3,5-difluorophenyl)-5-pyrimidinyl]-2-isopropyl-3(2H)-pyridazinone], the melting point is 234 °C.

`Cn1nc(-c2c(NCc3ccccn3)nc(N)nc2-c2ccccc2)ccc1=O` [Example 146, 6-{2-amino-4-phenyl-6-[(2-pyridinylmethyl)amino]-5-pyrimidinyl}-2-methyl-3(2H)-pyridazinone] came in with a melting point of 248 to 250 °C.

In the case of `CC(C)n1nc(-c2c(Nc3ccccc3)nc(N)nc2-c2ccc(F)cc2)ccc1=O` [Example 158, 6-[2-Amino-4-anilino-6-(4-fluorophenyl)-5-pyrimidinyl]-2-isopropyl-3(2H)-pyridazinone], the melting point is greater than 250 °C.

Consider `COc1ccc(-c2nc(N)ncc2-c2ccc(=O)n(C)n2)cc1F` [Example 63, 6-(2-Amino-4-(3-fluoro-4-methoxyphenyl)-5-pyrimidinyl]-2-methyl-3(2H)-pyridazinone], for which the melting point was found to be 245 °C.

Consider `CC(C)n1nc(-c2cnc(NC(=O)C(C)(C)C)nc2-c2ccccc2)ccc1=O` [Example 176, N-[5-(1-isopropyl-6-oxo-1,6-dihydro-3-pyridazinyl)-4-phenyl-2-pyrimidinyl]-2,2-dimethylpropanamide], for which the melting point was in the range of 138 to 141 °C.

For the compound `CC(C)n1nc(-c2cnc(N)nc2-c2ccc(Br)cc2)ccc1=O` [Example 235, 6-[2-Amino-4-(4-bromophenyl)-5-pyrimidinyl]-2-isopropyl-3(2H)-pyridazinone], the melting point came to 204 °C.
